Experimental data as given in patent US10254290B2, “Systems and methods for identifying protein stabilizers” (The University of Kansas, priority 2012, dated 2019).

Legend:
GroEL chaperonin = GroEL chaperonin (Escherichia coli, UniProt P0A6F5); test: Binding of the substance to the chaperonin itself
CFTR-NBD1 = CFTR-NBD1 (Homo sapiens, UniProt P13569); test: GroEL binding to CFTR-NBD1 bound directly to the substrate; details: CFTR-NBD1 introduced to GTP prior to GroEL
Excerpt: Additionally, the CFTR nucleotide binding domain (e.g., CFTR-NBD1) may be bound directly to the substrate, which is then introduced to a GroEL buffer. […] When the CFTR-NBD1 is not introduced to GTP prior to being introduced to GroEL, there is a much higher single. Other substances besides GTP can also be screen to identify inhibitors of forming the CFTR-NBD1/GroEL complex.

CFTR = CFTR (Homo sapiens, UniProt P13569); test: BLI chaperonin (GroEL) binding to antibody-captured CFTR, with or without stabilizer (scheme of FIG. 9); details: compared with chaperonin alone and buffer signal
Excerpt: In one embodiment, a linker antibody (e.g., anti-mouse antibody) can be attached to the substrate, which is then introduced to a capture antibody (e.g., CFTR antibody), and which is then introduced to a target protein (e.g., cystic fibrosis transmembrane conductance regulator, CFTR). In some instances the capture antibody can be linked directly to the substrate or through a suitable linker. However, the linker antibody can position the capture antibody a suitable distance from the substrate by antibody extension. If no stabilizer is present, a chaperonin (e.g., GroEL) can bind with the target protein to provide a large signal.
As shown, a substrate 202 has an anti-mouse antibody 906 bound thereto. Then, a CFTR antibody 908 is associated with the anti-mouse antibody 906. CFTR 910 is then introduce to and bound with the CFTR antibody 908 before a chaperonin 914 (e.g., GroEL) is introduced to the CFTR/CFTR antibody complex. […] When there is no stabilizer C, the chaperonin 514 binds with the CFTR/CFTR antibody complex to form complex 920 and to produce a large signal. When the stabilizer C is present, there is a decreased binding signal to indicate that the chaperonin cannot bind with the CFTR/CFTR antibody complex. […]

[1] = target: T1, dihydrofolate reductase (DHFR) (Homo sapiens, UniProt P00374); test: Control experiment: biotinylated GroEL chaperonin on a BLI substrate dipped into a DHFR solution; assay type: binding
T1 sequence (P00374 1-187): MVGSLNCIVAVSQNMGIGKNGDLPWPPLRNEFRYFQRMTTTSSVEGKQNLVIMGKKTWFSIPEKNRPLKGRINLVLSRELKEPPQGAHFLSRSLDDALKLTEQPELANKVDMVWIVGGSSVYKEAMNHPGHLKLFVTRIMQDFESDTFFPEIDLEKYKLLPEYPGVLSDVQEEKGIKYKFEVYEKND
Excerpt: The chaperonin can bind particular target proteins as they transiently expose hydrophobic surfaces from their partially folded forms. The partitioning kinetics can be followed using the BLI high throughput system (Fortebio Octet™) or SPR or other suitable technology. With BLI as an example, the chaperonin can be attached to the BLI tip substrate to dip into a target protein solution. Alternatively, the capture protein and/or target protein can be attached to the BLI tip substrate to dip into a chaperonin solution. The chaperonin will bind with transitioned target proteins (e.g., second conformation), but has no or low binding with folded target proteins (e.g., first conformation). […] Potential protein stabilizers can be screened to see which ones inhibit the chaperonin from binding to the target protein by the stabilizer retaining the protein in the first conformation. In the presence of a potential protein stabilizer, the partitioning kinetic amplitudes show significant declines (e.g., inhibition of partitioning) or even abolish global partitioning, which is scored as a potential lead compound. Once identified, potential protein stabilizer compounds can be further tested with target proteins in secondary screens. […]

GroEL chaperonin, sequence (P0A6F5 2-548): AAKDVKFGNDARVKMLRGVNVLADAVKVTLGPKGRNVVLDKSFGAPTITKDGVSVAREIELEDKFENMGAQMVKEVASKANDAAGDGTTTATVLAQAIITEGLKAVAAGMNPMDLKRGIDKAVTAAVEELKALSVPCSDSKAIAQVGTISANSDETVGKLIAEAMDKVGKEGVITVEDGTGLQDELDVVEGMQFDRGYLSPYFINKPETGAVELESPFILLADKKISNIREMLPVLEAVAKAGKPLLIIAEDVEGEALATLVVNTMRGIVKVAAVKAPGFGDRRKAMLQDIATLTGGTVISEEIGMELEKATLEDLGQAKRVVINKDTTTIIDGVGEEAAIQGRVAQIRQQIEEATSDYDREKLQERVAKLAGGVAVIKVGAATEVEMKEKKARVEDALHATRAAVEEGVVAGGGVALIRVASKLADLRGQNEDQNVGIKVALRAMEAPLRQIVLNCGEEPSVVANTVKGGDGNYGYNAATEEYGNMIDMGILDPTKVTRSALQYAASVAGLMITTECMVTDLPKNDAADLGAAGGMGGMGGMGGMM
CFTR, sequence (P13569 whole entry, species assumed): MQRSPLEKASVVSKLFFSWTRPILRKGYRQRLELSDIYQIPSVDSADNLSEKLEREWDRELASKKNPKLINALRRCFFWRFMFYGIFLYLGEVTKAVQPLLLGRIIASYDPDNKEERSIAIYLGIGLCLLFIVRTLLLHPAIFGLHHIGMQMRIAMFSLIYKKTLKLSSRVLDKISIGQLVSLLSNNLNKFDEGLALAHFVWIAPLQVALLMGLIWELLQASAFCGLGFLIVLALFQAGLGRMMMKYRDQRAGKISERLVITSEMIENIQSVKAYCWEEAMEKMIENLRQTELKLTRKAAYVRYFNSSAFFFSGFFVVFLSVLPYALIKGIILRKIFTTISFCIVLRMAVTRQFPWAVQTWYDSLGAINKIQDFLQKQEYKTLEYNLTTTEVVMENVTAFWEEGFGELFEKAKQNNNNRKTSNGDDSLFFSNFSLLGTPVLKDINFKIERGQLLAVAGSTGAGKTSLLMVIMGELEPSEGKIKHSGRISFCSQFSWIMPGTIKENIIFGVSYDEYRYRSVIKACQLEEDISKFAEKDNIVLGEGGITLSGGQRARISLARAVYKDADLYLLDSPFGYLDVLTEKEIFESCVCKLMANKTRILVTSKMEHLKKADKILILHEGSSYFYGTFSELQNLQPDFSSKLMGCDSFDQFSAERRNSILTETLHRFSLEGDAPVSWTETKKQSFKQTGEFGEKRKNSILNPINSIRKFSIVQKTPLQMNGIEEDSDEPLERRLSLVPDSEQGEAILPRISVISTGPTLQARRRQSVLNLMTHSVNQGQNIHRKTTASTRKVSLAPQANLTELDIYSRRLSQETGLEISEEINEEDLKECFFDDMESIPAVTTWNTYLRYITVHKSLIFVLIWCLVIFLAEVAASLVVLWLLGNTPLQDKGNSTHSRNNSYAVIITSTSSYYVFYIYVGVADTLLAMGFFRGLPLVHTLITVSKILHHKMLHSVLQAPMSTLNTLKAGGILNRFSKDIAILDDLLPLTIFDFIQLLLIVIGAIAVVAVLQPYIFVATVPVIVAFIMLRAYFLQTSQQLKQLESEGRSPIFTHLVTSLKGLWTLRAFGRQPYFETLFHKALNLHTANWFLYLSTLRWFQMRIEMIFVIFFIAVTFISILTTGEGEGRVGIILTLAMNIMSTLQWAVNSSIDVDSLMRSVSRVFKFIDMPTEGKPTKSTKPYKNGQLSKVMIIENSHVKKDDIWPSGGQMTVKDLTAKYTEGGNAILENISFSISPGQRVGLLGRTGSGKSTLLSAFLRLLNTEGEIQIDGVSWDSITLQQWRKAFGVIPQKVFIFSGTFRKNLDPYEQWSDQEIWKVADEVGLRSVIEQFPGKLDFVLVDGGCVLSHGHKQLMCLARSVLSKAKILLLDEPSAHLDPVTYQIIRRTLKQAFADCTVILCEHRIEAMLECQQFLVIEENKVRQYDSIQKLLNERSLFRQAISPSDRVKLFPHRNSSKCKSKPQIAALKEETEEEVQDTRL
CFTR-NBD1, sequence (P13569 423-646 limits assumed): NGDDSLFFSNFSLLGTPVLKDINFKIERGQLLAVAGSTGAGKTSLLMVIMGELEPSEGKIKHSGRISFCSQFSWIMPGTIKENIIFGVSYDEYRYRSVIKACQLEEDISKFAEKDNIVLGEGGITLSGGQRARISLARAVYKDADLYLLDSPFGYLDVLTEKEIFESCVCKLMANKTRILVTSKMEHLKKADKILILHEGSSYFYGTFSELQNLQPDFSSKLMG

SMILES | binding to the GroEL chaperonin (GroEL chaperonin) | signal of GroEL binding to CFTR-NBD1 (CFTR-NBD1) | chaperonin binding signal (stabilization of CFTR) (CFTR) | signal of GroEL-DHFR interaction ([1]; BLI, NADPH e.g. 10 mM) | signal of GroEL-DHFR interaction, combination ([1]; combination of GroEL and DHFR and 10 mM NADPH)
Nc1nc2c(ncn2[C@@H]2O[C@H](COP(=O)(O)OP(=O)(O)OP(=O)(O)O)[C@@H](O)[C@H]2O)c(=O)[nH]1 [GTP, guanosine triphosphate] | does not bind | no signal or a low single | decreased the chaperonin binding and decreased the signal | – | –
NC(=O)C1=CN([C@@H]2O[C@H](COP(=O)(O)OP(=O)(O)OC[C@H]3O[C@@H](n4cnc5c(N)ncnc54)[C@H](OP(=O)(O)O)[C@@H]3O)[C@@H](O)[C@H]2O)C=CC1 [NADPH] | – | – | – | decrease the signal | further reduce the signal
